These results are taken from PMC8713167, “New Insights into the Structure–Activity Relationship and Neuroprotective Profile of Benzodiazepinone Derivatives of Neurounina-1 as Modulators of the Na^+/Ca^2+ Exchanger Isoforms” (Journal of Medicinal Chemistry, 2021).

Data set [1] deals with T1, NCX1 (Canis lupus familiaris, UniProt P23685).
T1 construct: expressed in transfected cells; host or cells: BHK (baby hamster kidney) cells, stably transfected
Nature of the data set: High-throughput screening of NCX1 reverse mode, Fluo-4-loaded BHK-NCX1 cells, Na+-free pulse. The note with it: for Effect on NCX1 activity in the reverse mode (screening, in words): BHK-NCX1, 10 nM and 10 μM; for Fluo-experiments on BHK-NCX1: NCX1 reverse mode, Na+-free, CTL (100), concentration not given (10 nM and 10 μM screened). The data set is classed as cell-based, dog.

Data set [2] deals with T2, NCX3 (Rattus norvegicus, UniProt P70549).
T2 construct: expressed in transfected cells; host or cells: BHK (baby hamster kidney) cells, stably transfected
Nature of the data set: High-throughput screening of NCX3 reverse mode, Fluo-4-loaded BHK-NCX3 cells, Na+-free pulse. The data set is classed as cell-based. As to conditions: CTL (100), concentration not given (10 nM and 10 μM screened).

Data set [3] deals with T1, NCX1. In words: Single-cell Fura-2AM video-imaging, Na+-free-induced [Ca2+]i increase in BHK-NCX1 cells. Type of data set: cell-based, dog. As to conditions: for Fura2-experiments on BHK-NCX1 (dose/effect), inhibition / Fura2-experiments on BHK-NCX1 (dose/effect): Na+-free-induced [Ca2+]i increase, reverse mode. The method, then: Furthermore, NCX activity in the reverse mode of operation was also studied on single cell by Fura-2AM video-imaging in BHK-NCX1 and BHK-NCX3 cells (Figures 3 and 4). […] Furthermore, patch-clamp electrophysiology in the whole-cell configuration was used to measure NCX activity both in the forward and reverse mode of operation.
[Ca^2+]i was measured by single-cell computer-assisted video-imaging using Fura-2 acetoxymethyl ester (Fura-2AM). Neurons were loaded with Fura 2AM (10 μM for 30′ at 37 °C). Experiments were carried out with a MicroMax 512BFT cooled CCD camera (Princeton Instruments, Trenton, NJ, USA), LAMBDA 10-2 filter wheeler (Sutter Instruments, Novato, CA), and Meta-Morph/MetaFluor Imaging System software (Universal Imaging, West Chester, PA). Fura-2 fluorescence intensity was measured every 3 s. From each coverslip, 40–60 individual cells were selected and monitored simultaneously. Assuming that the KD for FURA-2 was 224 nM, the equation of Grynkiewicz was used to for calibration.[58]
The NCX reverse mode was determined by switching the normal Krebs medium to Na^+-deficient NMDG+ medium (Na^+-free), as previously reported.[57]
Compounds were solubilized in dimethyl sulfoxide at concentrations of 1 mM, and stock solutions were kept at −20 °C. Appropriate drug dilutions were prepared daily. Statistical analysis was performed with two-way ANOVA, followed by the Newman–Keuls test. Statistical significance was accepted at the 95% confidence level (p < 0.05). Values are expressed as means ± SEM. To obtain EC50’s of newly synthesized compounds and IC50 of compound 4, all data were fitted to the following binding isotherm: […], where X is the drug concentration and n is the Hill coefficient.

For data set [4], the target named is T1, NCX1. Nature of the data set: Whole-cell patch-clamp electrophysiology of INCX in BHK-NCX1 cells. The note with it: CTL100; for Patch-clamp-experiments on BHK-NCX1, forward mode: forward mode (−120 mV); for Patch-clamp-experiments on BHK-NCX1, reverse mode: reverse mode (+60 mV). The data set is classed as cell-based, dog.
In data set [5] the target is T2, NCX3. In words: Whole-cell patch-clamp electrophysiology of INCX in BHK-NCX3 cells. The data set is classed as cell-based. The note with it: compound 4 at 10 μM (Figures 5B and S1). On the technique in general: The patch-clamp technique gives a direct electrical read-out from membranes.
The subject of data set [6] is rat primary cortical neurons. Nature of the data set: Cell viability (MTT) of primary cortical neurons exposed to OGD followed by RX. The data set is classed as cell-based. The note with it: for Neuroprotection in cortical neurons exposed to OGD + RX (in words): added during OGD and RX, 1 at 10 nM, 14 at 10 μM. The method, then: Once identified as NCX activity modulators, compounds 1, 4, and 14 were tested on cell viability of primary rat cortical neurons exposed to OGD followed by RX, an experimental condition mimicking hypoxic conditions occurring during stroke. These compounds were added during either OGD or RX phases at the corresponding median effective concentration for their NCX stimulating or inhibiting activity.
Rat cortical neurons were prepared and grown as previously reported.[22],[23] During the exposure to hypoxic conditions, primary cortical neurons at 7/10 DIV were incubated with different concentrations of each previously identified compound. Italian Ministry of Health and the local Animal Care Committee of “Federico II” University of Naples (Italy) approved all animal procedures adopted (D. Lgs. March 4th, 2014 from Italian Ministry of Health; DIR 210/63 UE; 12/2018-UT7).
Hypoxic conditions were induced by exposing rat primary cortical neurons to a oxygen- and glucose-free medium in a humidified atmosphere containing 95% nitrogen and 5% CO2, as previously reported.[22],[23] Cell injury was assessed by MTT analysis. Briefly, neurons were incubated with 1 mL of MTT solution (0.5 mg/mL in PBS). After 1 h of incubation at 37 °C, neurons were dissolved in dimethyl sulfoxide and the rate of MTT variation was measured spectrophotometrically at the wavelength of 540 nm.[22],[57]

Data set [7] concerns primary cortical neurons. In words: Cell viability (MTT) of primary cortical neurons exposed to chemical hypoxia followed by RX. Type of data set: cell-based, rat. Here is the method: Considering that this represents a more demanding experimental paradigm, compound 1 may be considered an interesting tool with a neuroprotective profile. In fact, its neuroprotective effect in cortical neurons exposed to hypoxic conditions was similar to that produced by ischemic PC,[30],[31] a short stimulus inducing ischemic tolerance in neurons (Figure 6B). Furthermore, to better investigate the neuroprotective profile of compound 1, it was tested in primary cortical neurons exposed to chemical hypoxia, followed by RX, a detrimental condition undermining the mitochondrial function. […] However, the specific role of each mode of operation in the neuroprotective effect remains obscure and very difficult to define in this experimental paradigm. […] Therefore, the excessive activation of the NCX3 forward mode determining Ca^2+ extrusion may negatively counterbalance the activation of its reverse mode, favoring Ca^2+ entrance.
Rat cortical neurons were prepared and grown as previously reported.[22],[23] […]
Chemical hypoxia was reproduced by exposing primary cortical neurons for 45 min to a glucose-free medium containing oligomycin (5 μg/mL) plus 2-DG (2 mM), followed by RX (3 h). […] Cell injury was assessed by MTT analysis at the end of each experiment.

Data set [8] addresses T2, NCX3. Nature of the data set: Single-cell Fura-2AM video-imaging, Na+-free-induced [Ca2+]i increase in BHK-NCX3 cells. The data set is classed as cell-based.

T2 sequence (P70549 31-927): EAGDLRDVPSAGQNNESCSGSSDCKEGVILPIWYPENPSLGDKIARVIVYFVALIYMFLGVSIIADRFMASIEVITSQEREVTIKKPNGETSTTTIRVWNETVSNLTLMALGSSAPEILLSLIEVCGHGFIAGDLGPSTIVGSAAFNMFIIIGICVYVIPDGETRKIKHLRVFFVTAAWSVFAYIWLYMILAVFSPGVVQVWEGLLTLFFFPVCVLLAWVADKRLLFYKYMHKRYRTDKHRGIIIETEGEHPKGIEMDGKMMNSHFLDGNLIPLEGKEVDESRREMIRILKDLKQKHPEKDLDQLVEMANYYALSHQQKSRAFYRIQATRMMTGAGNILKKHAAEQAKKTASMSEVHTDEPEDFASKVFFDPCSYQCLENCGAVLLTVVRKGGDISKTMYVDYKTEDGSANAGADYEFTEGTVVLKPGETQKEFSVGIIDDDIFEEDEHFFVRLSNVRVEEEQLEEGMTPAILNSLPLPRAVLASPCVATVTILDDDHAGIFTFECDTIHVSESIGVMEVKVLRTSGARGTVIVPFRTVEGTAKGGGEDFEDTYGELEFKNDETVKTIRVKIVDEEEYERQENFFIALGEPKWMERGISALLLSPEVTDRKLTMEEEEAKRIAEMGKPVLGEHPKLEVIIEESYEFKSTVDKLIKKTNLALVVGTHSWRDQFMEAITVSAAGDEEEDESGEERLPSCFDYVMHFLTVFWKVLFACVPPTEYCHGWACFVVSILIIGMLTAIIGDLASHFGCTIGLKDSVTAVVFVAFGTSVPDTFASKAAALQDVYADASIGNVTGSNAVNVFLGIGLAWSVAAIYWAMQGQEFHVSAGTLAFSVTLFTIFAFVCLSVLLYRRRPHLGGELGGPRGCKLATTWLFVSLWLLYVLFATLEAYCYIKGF

`O=C1CN=C(c2ccccc2)c2cc([N+](=O)[O-])ccc2N1CCN1CCCC1` [Compound 4, 7-Nitro-5-phenyl-1-[2-(pyrrolidin-1-yl)ethyl]-1H-benzo[e][1,4]diazepin-2(3H)-one]: the melting point was in the range of 70 to 71 °C. Also, in [1], the “Effect on NCX1 activity in the reverse mode (screening, in words)” value was “selective NCX1 inhibitor” and the “Fluo-experiments on BHK-NCX1” value is 80±2. Further, in data set [2], the “Fluo-experiments on BHK-NCX3” value is 100. In [3], this molecule came in with a concentration for half-maximal inhibition (IC50) of 10000 nM. For the same molecule, the “Fura2-experiments on BHK-NCX1 (dose/effect), inhibition” value in data set [3] (1nM) is recorded as 98±1.3 % of controls. For the same molecule, the “Fura2-experiments on BHK-NCX1 (dose/effect), inhibition” value in data set [3] (10nM) is reported as 97±0.3 % of controls. For the same molecule, the “Fura2-experiments on BHK-NCX1 (dose/effect), inhibition” value in data set [3] (10µM) is on record as 41±2.1 % of controls. For the same molecule, the “Fura2-experiments on BHK-NCX1 (dose/effect), inhibition” value in data set [3] (30µM) is listed as 9±0.5 % of controls. In data set [4] (compound 4 at 10 μM (Figure 5)), the “Patch-clamp-experiments on BHK-NCX1, forward mode” value is 85±2.1 and the “Patch-clamp-experiments on BHK-NCX1, reverse mode” value is reported as 58±1.1. Besides, in data set [5], the “Effect on NCX activity in BHK-NCX3 cells (in words)” value is reported as “failed to modulate”.
Regarding `O=C1CN=C(c2ccccc2Cl)c2cc([N+](=O)[O-])ccc2N1CN1CCCC1` [Compound 1, 5-(2-Chlorophenyl)-7-nitro-1-(pyrrolidin-1-ylmethyl)-1H-benzo[e][1,4]diazepin-2(3H)-one], in data set [1], the “Effect on NCX1 activity in the reverse mode (screening, in words)” value was “selective NCX1 activator” and the “Fluo-experiments on BHK-NCX1” value is reported as 128±1.3. In addition, the “Fluo-experiments on BHK-NCX3” value in [2] is listed as 100. In data set [3] (1nM), the “Fura2-experiments on BHK-NCX1 (dose/effect)” value was 120±1.3 % of controls. In addition, the “Fura2-experiments on BHK-NCX1 (dose/effect)” value in [3] (10nM) was 178±2.3 % of controls. Besides, in data set [3] (10µM), the “Fura2-experiments on BHK-NCX1 (dose/effect)” value is recorded as 190±2.1 % of controls. In addition, in [4], the “Patch-clamp-experiments on BHK-NCX1, forward mode” value is given as 206±2% and the “Patch-clamp-experiments on BHK-NCX1, reverse mode” value turned out to be 305±3%. In addition, the “Neuroprotection in cortical neurons exposed to OGD + RX (in words)” value in data set [6] is recorded as “showed a neuroprotective profile”. The “Neuroprotection: cell viability after OGD + RX” value in data set [6] (compound 10 nM added during OGD and RX, OGDrx alone 57, normoxic control 100) is reported as 71±0.8 % of control. Also, the “Neuroprotection when preincubated and removed during OGD and RX (in words)” value in data set [6] (preincubated, then removed during OGD + RX) is given as “continued to protect neurons from hypoxic conditions”. Moreover, the “Neuroprotection: cell viability after chemical hypoxia + RX” value in [7] (compound 10 nM during chemical hypoxia (45 min) and RX (3 h), chemical Hyp alone 34, control 100) is reported as 46±1.5 % of control. Also, in [7] (compound 1 at 10 nM), the “Neuroprotection in cortical neurons exposed to chemical hypoxia + RX (in words)” value is “significantly reduced cell suffering”.
Take `CC1CCCCN1C(=O)CN1C(=O)CN=C(c2ccccc2)c2cc([N+](=O)[O-])ccc21` (stereo not shown) [Compound 14, 1-[2-(2-Methylpiperidin-1-yl)-2-oxoethyl]-7-nitro-5-phenyl-1H-benzo[e][1,4]-diazepin-2(3H)-one]: the figures for the EC50 in [3] and in data set [8] were 3.5 nM and 2000 nM, respectively. Moreover, in data set [6], the “Neuroprotection in cortical neurons exposed to OGD + RX (in words)” value is reported as “lack of neuroprotection”.

As usually defined, the IC50 is the concentration at which inhibition is half-maximal. A high value points to lower potency. By melting point is commonly meant the temperature of the solid-liquid transition. One may read the EC50 as the concentration that produces a half-maximal response. A low value points to a more potent agent.
